Our source for the IC50 values is patent US11464770B2, “Anticancer pharmaceutical composition” (NATIONAL CANCER CENTER, priority 2016, dated 2022).

Read-outs that look alike come from different tables or passages of the source. Bounds are passed on as bounds.

This test has as its system pancreatic cancer cell lines (e.g. MIA PaCa-2). The experiment in a line: Cell based assay, cell viability (CellTiter-Glo), pancreatic cancer cell lines. The following applies: Homo sapiens. The procedure: Commercially available bladder cancer, prostate cancer, lung cancer, breast cancer, blood cancer, pancreatic cancer, colorectal cancer, brain cancer, neuroblastoma, melanoma, liver cancer, cervical carcinoma, ovarian cancer, renal cancer, and papilloma cell lines were each treated with trypsin-EDTA and cultured, followed by being seeded in each well of a 96 well plate. After 24 hours of treatment at constant temperature, the respective cells were treated with the candidate compound so that a final concentration became 0 to 2 μM. The treated cells were additionally cultured for 72 hours, and cell viability was measured by using an ATP detection method (CellTiter-Glo® Luminescent Cell Viability Assay, Promega).
On the technique in general: Cellular ATP, detected with luciferase, serves as a proxy for viable cell number.

[1] abbreviates: pancreatic cancer cell line AsPC-1, 72 hours, read-out: IC50, AsPC-1.
Where [2] appears, read: pancreatic cancer cell line BxPC-3, 72 hours, read-out: IC50, BxPC-3.
The mark [3] stands for this setting: pancreatic cancer cell line CFPAC-1, 72 hours, read-out: IC50, CFPAC-1.
[4] abbreviates: pancreatic cancer cell line Capan-1, 72 hours, read-out: IC50, Capan-1.
Where [5] appears, read: pancreatic cancer cell line Capan-2, 72 hours, read-out: IC50, Capan-2.
Setting [6] is: pancreatic cancer cell line MIA PaCa-2, 72 hours, read-out: IC50, MIA PaCa-2.
Setting [7] is: pancreatic cancer cell line PANC-1, 72 hours, read-out: IC50, PANC-1.

Broadly, the IC50 is the midpoint of a concentration-inhibition curve. In the case of `CC(=O)c1c([S+]([O-])Cc2ccccc2)nc2c(Br)ccc(Cl)c2c1O` (stereo not drawn) [Compound 53, 1-(2-(benzylsulfinyl)-8-bromo-5-chloro-4-hydroxyquinolin-3-yl)ethan-1-one], the IC50 is, setting by setting: under setting [1], > 2000 nM; under setting [2], > 2000 nM; under setting [3], > 10000 nM; under setting [4], > 2000 nM; under setting [5], > 2000 nM; under setting [6], > 2000 nM. Also, the IC50 under setting [7] is > 2000 nM.

On to `CC(=O)c1c(S(=O)(=O)Cc2ccccc2)nc2c(Br)ccc(Cl)c2c1O` [Compound 54, 1-(2-(benzylsulfonyl)-8-bromo-5-chloro-4-hydroxyquinolin-3-yl)ethan-1-one], for which the IC50 is > 2000 nM under setting [1]; > 2000 nM under setting [2]; > 10000 nM under setting [3]; > 2000 nM under setting [4]; > 2000 nM under setting [5]; > 2000 nM under setting [6]. The IC50 under setting [7] is > 2000 nM.

Turning to `CC(=O)c1c([S+]([O-])Cc2ccccc2C#N)[nH]c2c(Br)ccc(Cl)c2c1=O` (stereo not drawn) [Compound 58, 2-(((3-acetyl-8-bromo-5-chloro-4-oxo-1,4-dihydroquinolin-2-yl)sulfinyl)methyl)benzonitrile], the IC50 under setting [1] was > 2000 nM; the IC50 under setting [2] is > 2000 nM; the IC50 under setting [3] was > 10000 nM; the IC50 under setting [4] is > 2000 nM; the 50% inhibitory concentration (IC50) under setting [5] was > 2000 nM; the IC50 under setting [6] was 810 nM. The IC50 under setting [7] is > 2000 nM.

As for `COCSc1[nH]c2c(Br)ccc(Cl)c2c(=O)c1C(C)=O` [Compound 61, 3-acetyl-8-bromo-5-chloro-2-((methoxymethyl)thio)quinolin-4(1H)-one], the IC50 was > 2000 nM under setting [1]; > 2000 nM under setting [2]; > 10000 nM under setting [3]; > 2000 nM under setting [4]; > 2000 nM under setting [5]; > 2000 nM under setting [6]. Also, the IC50 under setting [7] is > 2000 nM.

Take `CC(=O)c1c(S)[nH]c2c(Br)ccc(Cl)c2c1=O` [Compound 62, 3-acetyl-8-bromo-5-chloro-2-mercaptoquinolin-4(1H)-one]: the IC50 is > 2000 nM under setting [1]; > 2000 nM under setting [2]; > 10000 nM under setting [3]; > 2000 nM under setting [4]; > 2000 nM under setting [5]; > 2000 nM under setting [6]. For the same molecule, the IC50 under setting [7] is > 2000 nM.

On to `CC(=O)c1c([S+]([O-])Cc2ccc(C(=O)c3ccccc3)cc2)[nH]c2c(Br)ccc(Cl)c2c1=O` (stereo not drawn) [Compound 63, 3-acetyl-2-((4-benzoylbenzyl)sulfinyl)-8-bromo-5-chloroquinolin-4(1H)-one], for which the IC50 is, setting by setting: under setting [1], > 2000 nM; under setting [2], > 2000 nM; under setting [3], > 10000 nM; under setting [4], > 2000 nM; under setting [5], > 2000 nM; under setting [6], > 2000 nM. Also, under setting [7], the IC50 is > 2000 nM.

Take `CC(=O)c1c([S+]([O-])CC#N)[nH]c2c(Br)ccc(Cl)c2c1=O` (stereo not drawn) [Compound 65, 2-((3-acetyl-8-bromo-5-chloro-4-oxo-1,4-dihydroquinolin-2-yl)sulfinyl)acetonitrile]: the IC50 reads like this: under setting [1], > 2000 nM; under setting [2], > 2000 nM; under setting [3], > 10000 nM; under setting [4], > 2000 nM; under setting [5], > 2000 nM; under setting [6], > 2000 nM. In addition, the IC50 under setting [7] was > 2000 nM.

As for `CC(=O)c1c(SCC#N)[nH]c2c(Br)ccc(Cl)c2c1=O` [Compound 66, 2-((3-acetyl-8-bromo-5-chloro-4-oxo-1,4-dihydroquinolin-2-yl)thio)acetonitrile], the IC50 is > 2000 nM under setting [1]; > 2000 nM under setting [2]; > 10000 nM under setting [3]; > 2000 nM under setting [4]; > 2000 nM under setting [5]; > 2000 nM under setting [6]. Also, the IC50 under setting [7] was > 2000 nM.

In the case of `CC(=O)c1c(S/C=C\C(=O)O)[nH]c2c(Br)ccc(Cl)c2c1=O` [Compound 67, (Z)-3-((3-acetyl-8-bromo-5-chloro-4-oxo-1,4-dihydroquinolin-2-yl)thio)acrylic acid], the IC50 was > 2000 nM under setting [1]; > 2000 nM under setting [2]; > 10000 nM under setting [3]; > 2000 nM under setting [4]; > 2000 nM under setting [5]; > 2000 nM under setting [6]. Further, under setting [7], the IC50 was > 2000 nM.

As to `CC(=O)c1c([S+]([O-])Cc2ccc(S(F)(F)(F)(F)F)cc2)[nH]c2c(Br)ccc(Cl)c2c1=O` (stereo not drawn) [Compound 68, 3-acetyl-8-bromo-5-chloro-2-((4-(pentafluoro-16-sulfanyl)benzyl)sulfinyl)quinolin-4(1H)-one], the half-maximal inhibitory concentration (IC50) is > 2000 nM under setting [1]; > 2000 nM under setting [2]; > 10000 nM under setting [3]; > 2000 nM under setting [4]; > 2000 nM under setting [5]; 1120 nM under setting [6]. Further, the IC50 under setting [7] was > 2000 nM.

For the molecule `CC(=O)c1c([S+]([O-])Cc2ccc(S(F)(F)(F)(F)F)cc2F)[nH]c2c(Br)ccc(Cl)c2c1=O` (stereo not drawn) [Compound 69, 3-acetyl-8-bromo-5-chloro-2-((2-fluoro-4-(pentafluoro-16-sulfanyl)benzyl)sulfinyl)quinolin-4(1H)-one], the IC50 is, setting by setting: under setting [1], > 2000 nM; under setting [2], > 2000 nM; under setting [3], > 10000 nM; under setting [4], > 2000 nM; under setting [5], > 2000 nM; under setting [6], 1370 nM. Moreover, under setting [7], the IC50 was > 2000 nM.

Consider `CC(=O)c1c([S+]([O-])Cc2cccc(S(F)(F)(F)(F)F)c2)[nH]c2c(Br)ccc(Cl)c2c1=O` (stereo not drawn) [Compound 77, 3-acetyl-8-bromo-5-chloro-2-((3-(pentafluoro--sulfanyl)benzyl)sulfinyl)quinolin-4(1H)-one], for which the IC50 was > 2000 nM under setting [1]; > 2000 nM under setting [2]; > 10000 nM under setting [3]; > 2000 nM under setting [4]; > 2000 nM under setting [5]; 1390 nM under setting [6]. The IC50 under setting [7] is > 2000 nM.

Take `CC(=O)c1c([S+]([O-])Cc2ccc(SC(F)(F)F)cc2)[nH]c2c(Cl)ccc(Cl)c2c1=O` (stereo not drawn) [Compound 79, 3-acetyl-5,8-dichloro-2-((4-((trifluoromethyl)thio)benzyl)sulfinyl)quinolin-4(1H)-one]: the IC50 is > 2000 nM under setting [1]; > 2000 nM under setting [2]; > 10000 nM under setting [3]; > 2000 nM under setting [4]; > 2000 nM under setting [5]; > 2000 nM under setting [6]. The IC50 under setting [7] was > 2000 nM.

Turning to `CC(=O)c1c([S+]([O-])Cc2ccc(S(F)(F)(F)(F)F)cc2)[nH]c2c(F)ccc(F)c2c1=O` (stereo not drawn) [Compound 80, 3-acetyl-5,8-difluoro-2-((4-(pentafluoro--sulfanyl)benzyl)sulfinyl)quinolin-4(1H)-one], the IC50 by setting is: under setting [1], > 2000 nM; under setting [2], > 2000 nM; under setting [3], > 10000 nM; under setting [4], > 2000 nM; under setting [5], > 2000 nM; under setting [6], > 2000 nM. Further, the IC50 under setting [7] was > 2000 nM.

Take `CC(=O)c1c([S+]([O-])Cc2ccc(C(F)(F)F)o2)[nH]c2c(F)ccc(F)c2c1=O` (stereo not drawn) [Compound 81, 3-acetyl-5,8-difluoro-2-(((5-(trifluoromethyl)furan-2-yl)methyl)sulfinyl)quinolin-4(1H)-one]: the IC50 under setting [1] was > 2000 nM; the IC50 under setting [2] was > 2000 nM; the IC50 under setting [3] was > 10000 nM; the IC50 under setting [4] was > 2000 nM; the IC50 under setting [5] is > 2000 nM; the IC50 under setting [6] was > 2000 nM. Besides, the IC50 under setting [7] is > 2000 nM.

Turning to `CC(=O)c1c([S+]([O-])Cc2cc(C)on2)[nH]c2c(F)ccc(F)c2c1=O` (stereo not drawn) [Compound 82, 3-acetyl-5,8-difluoro-2-(((5-methylisoxazol-3-yl)methyl)sulfinyl)quinolin-4(1H)-one], the IC50 by setting is: under setting [1], > 2000 nM; under setting [2], > 2000 nM; under setting [3], > 10000 nM; under setting [4], > 2000 nM; under setting [5], > 2000 nM; under setting [6], > 2000 nM. Moreover, the IC50 under setting [7] is > 2000 nM.

`CC(C)C(=O)c1c([S+]([O-])Cc2ccc(SC(F)(F)F)cc2)[nH]c2c(F)ccc(F)c2c1=O` (stereo not drawn) [Compound 85, 5,8-difluoro-3-isobutyryl-2-((4-((trifluoromethyl)thio)benzyl)sulfinyl)quinolin-4(1H)-one]: the IC50 under setting [1] was > 2000 nM; the IC50 under setting [2] is > 2000 nM; the IC50 under setting [3] is > 10000 nM; the IC50 under setting [4] was > 2000 nM; the IC50 under setting [5] was > 2000 nM; the IC50 under setting [6] is > 2000 nM. Also, the IC50 under setting [7] is > 2000 nM.

On to `O=C(c1ccccc1)c1c([S+]([O-])Cc2ccc(S(F)(F)(F)(F)F)cc2)[nH]c2c(F)ccc(F)c2c1=O` (stereo not drawn) [Compound 87, 3-benzoyl-5,8-difluoro-2-((4-(pentafluoro--sulfanyl)benzyl)sulfinyl)quinolin-4(1H)-one], for which the concentration for half-maximal inhibition (IC50) was > 2000 nM under setting [1]; > 2000 nM under setting [2]; > 10000 nM under setting [3]; > 2000 nM under setting [4]; > 2000 nM under setting [5]; > 2000 nM under setting [6]. The IC50 under setting [7] is > 2000 nM.

For `Cc1cc(C[S+]([O-])c2[nH]c3c(Cl)ccc(Cl)c3c(=O)c2C(=O)c2ccccc2)no1` (stereo not drawn) [Compound 88, 3-benzoyl-5,8-dichloro-2-(((5-methylisoxazol-3-yl)methyl)sulfinyl)quinolin-4(1H)-one], the IC50 under setting [1] was > 2000 nM; the concentration for half-maximal inhibition (IC50) under setting [2] was > 2000 nM; the IC50 under setting [3] is > 10000 nM; the IC50 under setting [4] was > 2000 nM; the IC50 under setting [5] is > 2000 nM; the IC50 under setting [6] is > 2000 nM. Besides, the IC50 under setting [7] was > 2000 nM.

With `CC(=O)c1c([S+]([O-])CN2C(=O)c3ccccc3C2=O)[nH]c2c(Cl)ccc(Cl)c2c1=O` (stereo not drawn) [Compound 90, 2-(((3-acetyl-5,8-dichloro-4-oxo-1,4-dihydroquinolin-2-yl)sulfinyl)methyl)isoindoline-1,3-dione], the IC50 runs as follows: under setting [1], > 2000 nM; under setting [2], > 2000 nM; under setting [3], > 10000 nM; under setting [4], > 2000 nM; under setting [5], > 2000 nM; under setting [6], > 2000 nM. Further, under setting [7], the IC50 was > 2000 nM.

For `COC(=O)c1ccc(C[S+]([O-])c2[nH]c3c(Cl)ccc(Cl)c3c(=O)c2C(C)=O)cc1` (stereo not drawn) [Compound 91, methyl 4-(((3-acetyl-5,8-dichloro-4-oxo-1,4-dihydroquinolin-2-yl)sulfinyl)methyl)benzoate], the IC50 runs as follows: under setting [1], > 2000 nM; under setting [2], > 2000 nM; under setting [3], > 10000 nM; under setting [4], > 2000 nM; under setting [5], > 2000 nM; under setting [6], 1420 nM. The IC50 under setting [7] was > 2000 nM.
